Positions of bridges follow the written chain, without caps; N, C: chain ends. Non-standard residues stand in square brackets, D forms with d. Residues, ends and D or L forms follow the SMILES beside them. *: point of attachment. X12 = O=C(O)CCCCCCCCCCCCCCCCCCC(=O)N[C@@H](CCC(=O)NCCCOCCOCCOCCCN*)C(=O)O; X6 = O=C(O)CCCCCCCCCCCCCCCCC(=O)N[C@@H](CCC(=O)NCCCOCCOCCOCCCN*)C(=O)O; X4 = O=C(O)CCCCCCCCCCCCCCCCC(=O)N[C@@H](CC(=O)NCCCOCCOCCOCCCN*)C(=O)O; X18 = O=C(O)CCCCCCCCCCCCCCC(=O)N[C@@H](CC(=O)NCCCOCCOCCOCCCN*)C(=O)O; Trp(1-CH2COOH) = N[C@@H](Cc1cn(CC(=O)O)c2ccccc12)C(=O)O; Hyp = O=C(O)[C@@H]1C[C@@H](O)CN1; dHyp = O=C(O)[C@H]1C[C@H](O)CN1; NMeNle = CCCC[C@H](NC)C(=O)O; dDab = NCC[C@@H](N)C(=O)O; NMeA = CN[C@@H](C)C(=O)O; Dab = NCC[C@H](N)C(=O)O; Dap = NC[C@H](N)C(=O)O
biological target: T1, PD-L1 (Homo sapiens, UniProt Q9NZQ7); test: PD-1/PD-L1 Homogenous Time-Resolved Fluorescence (HTRF) binding assay (PD-1-Ig/PD-L1-His); details: inhibition of PD-1-Ig binding to PD-L1-TVMV-His; value given as number; read-out: HTRF IC50
T1 construct: hPDL1(19-239)-TVMV-His; made in house; host or cells: HEK293T
T1 sequence (Q9NZQ7 with tags, fused parts or gaps): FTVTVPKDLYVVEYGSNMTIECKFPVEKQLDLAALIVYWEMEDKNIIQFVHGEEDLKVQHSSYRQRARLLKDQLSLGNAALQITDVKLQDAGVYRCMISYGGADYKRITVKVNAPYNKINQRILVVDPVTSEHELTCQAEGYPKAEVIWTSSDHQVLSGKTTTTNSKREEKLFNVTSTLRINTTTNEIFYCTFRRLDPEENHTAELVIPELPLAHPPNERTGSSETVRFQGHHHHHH
Summary of the method: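 HTRF competition in dPBS with 0.1% BSA and 0.05% Tween-20: 20 nM PD-1-Ig added after 15 min compound pre-incubation with 10 nM PD-L1-His, then another 15 min. Signal (665/620 nm) after 30 min with APC anti-His (20 nM) and Eu anti-Ig (1 nM).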

IC50 [nM] | SMILES
10 | CCCC[C@H]1C(=O)N(C)[C@@H](CCCC)C(=O)N[C@@H](CC(C)C)C(=O)N[C@H](C(=O)NCC(=O)N[C@@H](CC(=O)O)C(=O)N[C@@H](CC(=O)NCCCOCCOCCOCCCNC(=O)C[C@H](NC(=O)CCCCCCCCCCCCCCC(=O)O)C(=O)O)C(=O)O)CSCC(=O)N[C@@H](Cc2ccc(O)cc2)C(=O)N(C)[C@@H](C)C(=O)N[C@@H](CC(N)=O)C(=O)N2CCC[C@@H]2C(=O)N[C@@H](CN)C(=O)N[C@@H](CC(C)C)C(=O)N2C[C@@H](O)C[C@@H]2C(=O)N[C@@H](Cc2c[nH]c3ccccc23)C(=O)N[C@@H](CCN)C(=O)N[C@@H](Cc2cn(CC(=O)O)c3ccccc23)C(=O)N1C [Example 11240] ({CH2CO}-Y[NMeA]N[dP][Dap]L[dHyp]W[Dab][Trp(1-CH2COOH)][NMeNle][NMeNle]LCGDD(X18)-OH; thioether N-14)

same assay, conditions: inhibition of PD-1-Ig binding to PD-L1-TVMV-His; value given as range class; read-out: HTRF IC50

IC50 [nM] | SMILES
0.3 to 9.9 | CCCC[C@H]1C(=O)N(C)[C@@H](CCCC)C(=O)N[C@@H](CC(C)C)C(=O)N[C@H](C(=O)NCC(=O)N[C@@H](CC(=O)O)C(=O)NCCCOCCOCCOCCCNC(=O)CC[C@H](NC(=O)CCCCCCCCCCCCCCCCC(=O)O)C(=O)O)CSCC(=O)N[C@@H](Cc2ccc(O)cc2)C(=O)N(C)[C@@H](C)C(=O)N[C@@H](CC(N)=O)C(=O)N2CCC[C@H]2C(=O)N[C@@H](CN)C(=O)N[C@@H](CC(C)C)C(=O)N2C[C@H](O)C[C@H]2C(=O)N[C@@H](Cc2c[nH]c3ccccc23)C(=O)N[C@@H](CCN)C(=O)N[C@@H](Cc2cn(CC(=O)O)c3ccccc23)C(=O)N1C [Example 11224] ({CH2CO}-Y[NMeA]NP[Dap]L[Hyp]W[Dab][Trp(1-CH2COOH)][NMeNle][NMeNle]LCGD-X6; thioether N-14)
0.3 to 9.9 | CCCC[C@H]1C(=O)N(C)[C@@H](CCCC)C(=O)N[C@@H](CC(C)C)C(=O)N[C@H](C(=O)NCC(=O)N[C@@H](CC(=O)O)C(=O)N[C@@H](CC(=O)NCCCOCCOCCOCCCNC(=O)CC[C@H](NC(=O)CCCCCCCCCCCCCCCCC(=O)O)C(=O)O)C(=O)O)CSCC(=O)N[C@@H](Cc2ccc(O)cc2)C(=O)N(C)[C@@H](C)C(=O)N[C@@H](CC(N)=O)C(=O)N2CCC[C@H]2C(=O)N[C@@H](CN)C(=O)N[C@@H](CC(C)C)C(=O)N2C[C@H](O)C[C@H]2C(=O)N[C@@H](Cc2c[nH]c3ccccc23)C(=O)N[C@@H](CCN)C(=O)N[C@@H](Cc2cn(CC(=O)O)c3ccccc23)C(=O)N1C [Example 11225] ({CH2CO}-Y[NMeA]NP[Dap]L[Hyp]W[Dab][Trp(1-CH2COOH)][NMeNle][NMeNle]LCGDD(X6)-OH; thioether N-14)
0.3 to 9.9 | CCCC[C@H]1C(=O)N(C)[C@@H](CCCC)C(=O)N[C@@H](CC(C)C)C(=O)N[C@H](C(=O)NCC(=O)N[C@@H](CCC(=O)O)C(=O)NCCCOCCOCCOCCCNC(=O)CC[C@H](NC(=O)CCCCCCCCCCCCCCCCCCC(=O)O)C(=O)O)CSCC(=O)N[C@@H](Cc2ccc(O)cc2)C(=O)N(C)[C@@H](C)C(=O)N[C@@H](CC(N)=O)C(=O)N2CCC[C@H]2C(=O)N[C@@H](CN)C(=O)N[C@@H](CC(C)C)C(=O)N2C[C@H](O)C[C@H]2C(=O)N[C@@H](Cc2c[nH]c3ccccc23)C(=O)N[C@@H](CCN)C(=O)N[C@@H](Cc2cn(CC(=O)O)c3ccccc23)C(=O)N1C [Example 11226] ({CH2CO}-Y[NMeA]NP[Dap]L[Hyp]W[Dab][Trp(1-CH2COOH)][NMeNle][NMeNle]LCGE-X12; thioether N-14)
0.3 to 9.9 | CCCC[C@H]1C(=O)N(C)[C@@H](CCCC)C(=O)N[C@@H](CC(C)C)C(=O)N[C@H](C(=O)N[C@@H](CC(=O)O)C(=O)N[C@@H](CC(=O)NCCCOCCOCCOCCCNC(=O)CC[C@H](NC(=O)CCCCCCCCCCCCCCCCC(=O)O)C(=O)O)C(=O)O)CSCC(=O)N[C@@H](Cc2ccc(O)cc2)C(=O)N(C)[C@@H](C)C(=O)N[C@@H](CC(N)=O)C(=O)N2CCC[C@H]2C(=O)N[C@@H](CN)C(=O)N[C@@H](CC(C)C)C(=O)N2C[C@H](O)C[C@H]2C(=O)N[C@@H](Cc2c[nH]c3ccccc23)C(=O)N[C@@H](CCN)C(=O)N[C@@H](Cc2cn(CC(=O)O)c3ccccc23)C(=O)N1C [Example 11227] ({CH2CO}-Y[NMeA]NP[Dap]L[Hyp]W[Dab][Trp(1-CH2COOH)][NMeNle][NMeNle]LCDD(X6)-OH; thioether N-14)
10 to 99 | CCCC[C@H]1C(=O)N(C)[C@@H](CCCC)C(=O)N[C@@H](CC(C)C)C(=O)N[C@H](C(=O)N[C@@H](CC(=O)O)C(=O)N[C@@H](CCC(=O)NCCCOCCOCCOCCCNC(=O)CC[C@H](NC(=O)CCCCCCCCCCCCCCCCC(=O)O)C(=O)O)C(=O)O)CSCC(=O)N[C@@H](Cc2ccc(O)cc2)C(=O)N(C)[C@@H](C)C(=O)N[C@@H](CC(N)=O)C(=O)N2CCC[C@@H]2C(=O)N[C@@H](CN)C(=O)N[C@@H](CC(C)C)C(=O)N2C[C@@H](O)C[C@@H]2C(=O)N[C@@H](Cc2c[nH]c3ccccc23)C(=O)N[C@@H](CCN)C(=O)N[C@@H](Cc2cn(CC(=O)O)c3ccccc23)C(=O)N1C [Example 11228] ({CH2CO}-Y[NMeA]N[dP][Dap]L[dHyp]W[Dab][Trp(1-CH2COOH)][NMeNle][NMeNle]LCDE(X6)-OH; thioether N-14)
10 to 99 | CCCC[C@H]1C(=O)N(C)[C@@H](CCCC)C(=O)N[C@@H](CC(C)C)C(=O)N[C@H](C(=O)NCC(=O)N[C@@H](CC(=O)O)C(=O)N[C@@H](CC(=O)NCCCOCCOCCOCCCNC(=O)C[C@H](NC(=O)CCCCCCCCCCCCCCCCC(=O)O)C(=O)O)C(=O)O)CSCC(=O)N[C@@H](Cc2ccc(O)cc2)C(=O)N(C)[C@@H](C)C(=O)N[C@@H](CC(N)=O)C(=O)N2CCC[C@@H]2C(=O)N[C@@H](CN)C(=O)N[C@@H](CC(C)C)C(=O)N2C[C@@H](O)C[C@@H]2C(=O)N[C@@H](Cc2c[nH]c3ccccc23)C(=O)N[C@@H](CCN)C(=O)N[C@@H](Cc2cn(CC(=O)O)c3ccccc23)C(=O)N1C [Example 11232] ({CH2CO}-Y[NMeA]N[dP][Dap]L[dHyp]W[Dab][Trp(1-CH2COOH)][NMeNle][NMeNle]LCGDD(X4)-OH; thioether N-14)
0.3 to 9.9 | CCCC[C@H]1C(=O)N(C)[C@@H](CCCC)C(=O)N[C@@H](CC(C)C)C(=O)N[C@H](C(=O)NCC(=O)N[C@@H](CCC(=O)NCCCOCCOCCOCCCNC(=O)C[C@H](NC(=O)CCCCCCCCCCCCCCCCC(=O)O)C(=O)O)C(=O)O)CSCC(=O)N[C@@H](Cc2ccc(O)cc2)C(=O)N(C)[C@@H](C)C(=O)N[C@@H](CC(N)=O)C(=O)N2CCC[C@@H]2C(=O)N[C@@H](CN)C(=O)N[C@@H](CC(C)C)C(=O)N2C[C@@H](O)C[C@@H]2C(=O)N[C@@H](Cc2c[nH]c3ccccc23)C(=O)N[C@@H](CCN)C(=O)N[C@@H](Cc2cn(CC(=O)O)c3ccccc23)C(=O)N1C [Example 11234] ({CH2CO}-Y[NMeA]N[dP][Dap]L[dHyp]W[Dab][Trp(1-CH2COOH)][NMeNle][NMeNle]LCGE(X4)-OH; thioether N-14)
10 to 99 | CCCC[C@H]1C(=O)N(C)[C@@H](CCCC)C(=O)N[C@@H](CC(C)C)C(=O)N[C@@H](C(=O)NCC(=O)N[C@@H](CC(=O)O)C(=O)NCCCOCCOCCOCCCNC(=O)C[C@H](NC(=O)CCCCCCCCCCCCCCCCC(=O)O)C(=O)O)CSCC(=O)N[C@@H](Cc2ccc(O)cc2)C(=O)N(C)[C@@H](C)C(=O)N[C@@H](CC(N)=O)C(=O)N2CCC[C@@H]2C(=O)N[C@@H](CN)C(=O)N[C@@H](CC(C)C)C(=O)N2C[C@@H](O)C[C@@H]2C(=O)N[C@@H](Cc2c[nH]c3ccccc23)C(=O)N[C@@H](CCN)C(=O)N[C@@H](Cc2cn(CC(=O)O)c3ccccc23)C(=O)N1C [Example 11237] ({CH2CO}-Y[NMeA]N[dP][Dap]L[dHyp]W[Dab][Trp(1-CH2COOH)][NMeNle][NMeNle]L[dC]GD-X4; thioether N-14)
0.3 to 9.9 | CCCC[C@H]1C(=O)N(C)[C@@H](CCCC)C(=O)N[C@@H](CC(C)C)C(=O)N[C@@H](C(=O)NCC(=O)N[C@@H](CC(=O)O)C(=O)NCCCOCCOCCOCCCNC(=O)C[C@H](NC(=O)CCCCCCCCCCCCCCC(=O)O)C(=O)O)CSCC(=O)N[C@@H](Cc2ccc(O)cc2)C(=O)N(C)[C@@H](C)C(=O)N[C@@H](CC(N)=O)C(=O)N2CCC[C@@H]2C(=O)N[C@@H](CN)C(=O)N[C@@H](CC(C)C)C(=O)N2C[C@@H](O)C[C@@H]2C(=O)N[C@@H](Cc2c[nH]c3ccccc23)C(=O)N[C@@H](CCN)C(=O)N[C@@H](Cc2cn(CC(=O)O)c3ccccc23)C(=O)N1C [Example 11238] ({CH2CO}-Y[NMeA]N[dP][Dap]L[dHyp]W[Dab][Trp(1-CH2COOH)][NMeNle][NMeNle]L[dC]GD-X18; thioether N-14)
10 to 99 | CCCC[C@H]1C(=O)N(C)[C@@H](CCCC)C(=O)N[C@@H](CC(C)C)C(=O)N[C@@H](C(=O)NCC(=O)N[C@@H](CC(=O)O)C(=O)N[C@@H](CCC(=O)NCCCOCCOCCOCCCNC(=O)C[C@H](NC(=O)CCCCCCCCCCCCCCC(=O)O)C(=O)O)C(=O)O)CSCC(=O)N[C@@H](Cc2ccc(O)cc2)C(=O)N(C)[C@@H](C)C(=O)N[C@@H](CC(N)=O)C(=O)N2CCC[C@@H]2C(=O)N[C@@H](CN)C(=O)N[C@@H](CC(C)C)C(=O)N2C[C@@H](O)C[C@@H]2C(=O)N[C@@H](Cc2c[nH]c3ccccc23)C(=O)N[C@H](CCN)C(=O)N[C@@H](Cc2cn(CC(=O)O)c3ccccc23)C(=O)N1C [Example 11241] ({CH2CO}-Y[NMeA]N[dP][Dap]L[dHyp]W[dDab][Trp(1-CH2COOH)][NMeNle][NMeNle]L[dC]GDE(X18)-OH; thioether N-14)
10 to 99 | CCCC[C@H]1C(=O)N(C)[C@@H](CCCC)C(=O)N[C@@H](CC(C)C)C(=O)N[C@H](C(=O)NCCCOCCOCCOCCCNC(=O)C[C@H](NC(=O)CCCCCCCCCCCCCCC(=O)O)C(=O)O)CSCC(=O)N[C@@H](Cc2ccc(O)cc2)C(=O)N(C)[C@@H](C)C(=O)N[C@@H](CC(N)=O)C(=O)N2CCC[C@@H]2C(=O)N[C@@H](CN)C(=O)N[C@@H](CC(C)C)C(=O)N2C[C@@H](O)C[C@@H]2C(=O)N[C@@H](Cc2c[nH]c3ccccc23)C(=O)N[C@@H](CCN)C(=O)N[C@@H](Cc2cn(CC(=O)O)c3ccccc23)C(=O)N1C [Example 11242] ({CH2CO}-Y[NMeA]N[dP][Dap]L[dHyp]W[Dab][Trp(1-CH2COOH)][NMeNle][NMeNle]LC-X18; thioether N-14)
